Source: PMC12332667, “Role of Structural Modifications in Peptidomimetic Compounds as Potential Antimicrobial Agents against Staphylococcus aureus and Streptococcus pyogenes: Balancing Bioavailability, Safety, and Antimicrobial Activity” (ACS Omega, 2025)
≈ marks a conversion by molar mass, not a printed value. Where “and” joins values, the source holds several entries; their conditions need not be identical. Identical values can stand only once.

Legend:
S. aureus ATCC 43300 = assay: MIC/MBC broth microdilution, S. aureus; type: cell-based, Staphylococcus aureus; details: for MBC / MIC: S. aureus
S. pyogenes ATCC 19615 = assay: MIC/MBC broth microdilution, S. pyogenes; type: cell-based, Streptococcus pyogenes; details: S. pyogenes
Summary of the method: (§1)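 Standard NCCLS broth microdilution in BHI broth, inoculum approx. 10^5 CFU/mL, serially diluted peptidomimetics, 18 h at 37 °C. MIC was the lowest concentration with no obvious growth (≥90% inhibition versus untreated); MBC was the lowest giving ≤3 colonies on subculture (≥99.9% kill).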

E. faecalis c.i. = assay: MIC/MBC broth microdilution, E. faecalis; type: cell-based, Enterococcus faecalis
Summary of the method: as §1

S. schleiferi c.i. = assay: MIC/MBC broth microdilution, S. schleiferi; type: cell-based, Staphylococcus schleiferi
Summary of the method: as §1

S. intemrdius c.i. = assay: MIC/MBC broth microdilution, S. intermedius; type: cell-based, Staphylococcus intermedius
Procedure: S. aureus (ATCC 29213),S. pyogenes (ATCC 19615),Streptococcus agalactiae (ATCC 27956),Escherichia coli (ATCC 25922),Proteus vulgaris (ATCC 6896),K. pneumoniae (ATCC 700603) andP. aeruginosa (ATCC 10145) reference strains, as well asStaphylococcus cohnii, Enterococcus faecalis, Staphylococcus schleiferi, Staphylococcus intermedius and Streptococcus mutans clinical isolates, were used to test the antibacterial activity of the peptidomimetics. Bacteria were aerobically cultured for 18 h at 37 °C in plates with sterilized brain heart infusion (BHI) broth (Sigma-Aldrich, USA) media mixed with bacteriological agar (Sigma-Aldrich, USA) using the streak plate method. After 18 h, BHI broth was inoculated to 0.5 on the McFarland scale and diluted to approximately 10^5 CFU/mL. To achieve a final stock concentration of 1024 μg/mL, the peptidomimetics were dissolved in sterile water, and 5–10% of absolute ethanol or dimethyl sulfoxide (DMSO) was added. The antibacterial activities were determined by using the standard broth microdilution method of the National Committee for Clinical Laboratory Standards. The process involved adding serially diluted peptidomimetics to consecutive wells of a 96-well microtiter plate (Brand, Germany) holding media with microorganisms. The inoculated plates treated with peptides were then placed in an incubator at 37 °C for 18 h. The MIC value was determined as the lowest concentration of peptidomimetic at which there was no obvious growth (equal or more than 90% of the untreated sample). […] The lowest concentration yielding growth in no more than 3 colonies, corresponding to at least a 99.9% kill rate, was taken as MBC. Each biological replicate included control wells with the addition of water, DMSO, and ethanol as respective solvent controls. All experiments were conducted with consistent adherence to growth and sterility controls and were performed at least in technical triplicate with three biological repeats.

S. mutans c.i. = assay: MIC/MBC broth microdilution, S. mutans; type: cell-based, Streptococcus mutans
Summary of the method: as §1

E. coli ATCC 25922 = assay: MIC/MBC broth microdilution, E. coli; type: cell-based, Escherichia coli
Summary of the method: as §1

P. vulgaris ATCC 6896 = assay: MIC/MBC broth microdilution, P. vulgaris; type: cell-based, Proteus vulgaris
Summary of the method: as §1

[1] = system: K. pneumoniae ATCC 700603; assay: MIC/MBC broth microdilution, K. pneumoniae; type: cell-based
Summary of the method: as §1

P. aeruginosa ATCC 10145 = assay: MIC/MBC broth microdilution, P. aeruginosa; type: cell-based
Summary of the method: as §1

[2] = Hydrophobicity by reverse-phase chromatography; type: physicochemical; details: acetonitrile content in the mobile phase at the retention time
Source text: Reverse-phase chromatography was employed to assess the hydrophobicity characteristics of the peptidomimetics. Hydrophobicity was quantified by determining the acetonitrile content in the mobile phase at the retention time of a peptidyl derivative (Table S2). The least hydrophobic compound (40% acetonitrile) was A-198, which aligns with the calculations of hydrophobicity by SwissADME and pkCSM (Table ). Next in the hydrophobicity sequence were A-197, A-220, A-219, A-174, and A-221, eluting with 42.5-43.9% of acetonitrile. Then there were followed by […], and A-179, with the acetonitrile percentage of 44.8-49.8. The compounds A-176, A-20, A-152, A-134, and A-210 needed over 50% of acetonitrile to be eluted from the column.

fibroblasts (46BR.1N) = assay: LDH cytotoxicity test, fibroblasts; type: cell-based; details: 48 h, 50-150 μg/mL
Summary of the method: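 HaCaT keratinocytes and 46BR.1N fibroblasts, 5000 cells per well, grown 24 h, then exposed to peptidomimetics at 50, 100 and 150 μg/mL in serum-free medium for 48 h. LDH release in supernatant read at 450 nm, normalized to untreated (0%) and 1% Triton X-100 (maximal) controls.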

[3] = system: immortalized human HaCaT keratinocytes; assay: XTT cell proliferation assay, keratinocytes; type: cell-based; details: XTT
Summary of the method: (§2)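 Cells at 37 °C, 5% CO2 received peptidomimetics in serum-free HG-DMEM for 48 or 72 h; for 72 h, half the medium was renewed and peptide re-added at 48 h. XTT reagent was then incubated 4 h and absorbance read at 490 nm; Mann–Whitney U test, p ≤ 0.05.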

[4] = system: human dermal fibroblast cell line (46BR.1N); assay: XTT cell proliferation assay, fibroblasts; type: cell-based; details: XTT
Summary of the method: as §2

`CC(C)[C@@H](CNC(=O)C(=Cc1ccccc1)c1ccccc1)NC(=O)[C@H](CCCNC(=N)N)NC(=O)[C@H](CCCCN)NC(=O)OCc1ccccc1` [Compound A-191] gave an MBC (S. aureus ATCC 43300; H2O) of 32 µg/mL (≈ 44 µM), an MIC (S. aureus ATCC 43300; H2O) of 32 µg/mL (≈ 44 µM) and an MBC (S. aureus ATCC 43300; water additive DMSO) of 32 µg/mL (≈ 44 µM). For the same compound, the MIC (S. aureus ATCC 43300; water additive DMSO) was 16 µg/mL (≈ 22 µM), the MBC (S. aureus ATCC 43300; water additive EtOH) was 32 µg/mL (≈ 44 µM) and the MIC (S. aureus ATCC 43300; water additive EtOH) was 16 µg/mL (≈ 22 µM). The “MIC value for S. aureus” value (S. aureus ATCC 43300; additive not stated) was 16 µg/mL, the MBC (S. pyogenes ATCC 19615; H2O) was 4 µg/mL (≈ 5.5 µM) and the MIC (S. pyogenes ATCC 19615; H2O) was 4 µg/mL (≈ 5.5 µM). For the same compound, the MBC (S. pyogenes ATCC 19615; water additive DMSO) was 8 µg/mL (≈ 11 µM), the MIC (S. pyogenes ATCC 19615; water additive DMSO) was 4 µg/mL (≈ 5.5 µM) and the MBC (S. pyogenes ATCC 19615; water additive EtOH) was 8 µg/mL (≈ 11 µM). For the same compound, the MIC (S. pyogenes ATCC 19615; water additive EtOH) was 4 µg/mL (≈ 5.5 µM), the MBC (E. faecalis c.i.; H2O) was > 512 µg/mL and the MIC (E. faecalis c.i.; H2O) was 512 µg/mL (≈ 704 µM). The MBC (E. faecalis c.i.; water additive DMSO) was > 512 µg/mL, the MIC (E. faecalis c.i.; water additive DMSO) was 512 µg/mL (≈ 704 µM) and the MIC (E. faecalis c.i.; water additive EtOH) was > 512 µg/mL. The MBC (S. schleiferi c.i.; H2O) was 32 µg/mL (≈ 44 µM), the MIC (S. schleiferi c.i.; H2O) was 8 µg/mL (≈ 11 µM) and the MBC (S. schleiferi c.i.; water additive DMSO) was 32 µg/mL (≈ 44 µM). The MIC (S. schleiferi c.i.; water additive DMSO) was 8 µg/mL (≈ 11 µM), the MBC (S. schleiferi c.i.; water additive EtOH) was 32 µg/mL (≈ 44 µM) and the MIC (S. schleiferi c.i.; water additive EtOH) was 8 µg/mL (≈ 11 µM). It also gave an MIC (S. intemrdius c.i.; H2O) of 32 µg/mL (≈ 44 µM), an MIC (S. intemrdius c.i.; water additive DMSO) of 32 µg/mL (≈ 44 µM) and an MIC (S. intemrdius c.i.; water additive EtOH) of 32 µg/mL (≈ 44 µM). For the same compound, the MIC (S. mutans c.i.; water additive DMSO) was 32 µg/mL (≈ 44 µM), the MIC (S. mutans c.i.; water additive EtOH) was 32 µg/mL (≈ 44 µM) and the MBC (E. coli ATCC 25922; H2O) was > 512 µg/mL. For the same compound, the MIC (E. coli ATCC 25922; H2O) was 512 µg/mL (≈ 704 µM), the MBC (E. coli ATCC 25922; water additive DMSO) was > 512 µg/mL and the MIC (E. coli ATCC 25922; water additive DMSO) was 512 µg/mL (≈ 704 µM). For the same compound, the MBC (E. coli ATCC 25922; water additive EtOH) was > 512 µg/mL, the MIC (E. coli ATCC 25922; water additive EtOH) was 512 µg/mL (≈ 704 µM) and the MBC (P. vulgaris ATCC 6896; H2O) was > 512 µg/mL. For the same compound, the MIC (P. vulgaris ATCC 6896; H2O) was 512 µg/mL (≈ 704 µM), the MIC (P. vulgaris ATCC 6896; water additive DMSO) was > 512 µg/mL and the MBC (P. vulgaris ATCC 6896; water additive EtOH) was > 512 µg/mL. For the same compound, the MIC (P. vulgaris ATCC 6896; water additive EtOH) was 512 µg/mL (≈ 704 µM), the MIC ([1]; H2O) was > 512 µg/mL and the MIC ([1]; water additive DMSO) was > 512 µg/mL. The MBC ([1]; water additive EtOH) was > 512 µg/mL, the MIC ([1]; water additive EtOH) was 512 µg/mL (≈ 704 µM) and the MBC (P. aeruginosa ATCC 10145; H2O) was 256 µg/mL (≈ 352 µM). For the same compound, the MBC (P. aeruginosa ATCC 10145; water additive DMSO) was 256 µg/mL (≈ 352 µM), the “% AcCN (acetonitrile required for elution from the column)” value [2] was 44.8% and 44.8–49.8% and the “cytotoxicity (LDH), in words” value (fibroblasts (46BR.1N)) was “high cytotoxic effect only to fibroblasts at the highest tested concentration”. The “proliferation relative to control at 100 and 150 μg/mL” value [3] was ≤ 20%, the “effect on proliferation, in words” value ([3]; 48 and 72 h, 0.01–150 μg/mL) was “negative impact” and the “proliferation relative to control at 100 and 150 μg/mL” value [4] was ≤ 20%. The “effect on proliferation, in words” value ([4]; 48 and 72 h, 0.01–150 μg/mL) was “negative impact”.
